Assay results: ChEMBL document CHEMBL5236621, “Synthesis and biological evaluation of N-(benzene sulfonyl)acetamide derivatives as anti-inflammatory and analgesic agents with COX-2/5-LOX/TRPV1 multifunctional inhibitory activity” (Bioorg Med Chem Lett, 2023)
pIC50: −log10 of the molar value.

Columns and labels:
[1] = biological target: T1, Polyunsaturated fatty acid 5-lipoxygenase (Homo sapiens, UniProt P09917); test: Inhibition of 5-LOX (unknown origin)
T1 sequence (P09917 whole entry): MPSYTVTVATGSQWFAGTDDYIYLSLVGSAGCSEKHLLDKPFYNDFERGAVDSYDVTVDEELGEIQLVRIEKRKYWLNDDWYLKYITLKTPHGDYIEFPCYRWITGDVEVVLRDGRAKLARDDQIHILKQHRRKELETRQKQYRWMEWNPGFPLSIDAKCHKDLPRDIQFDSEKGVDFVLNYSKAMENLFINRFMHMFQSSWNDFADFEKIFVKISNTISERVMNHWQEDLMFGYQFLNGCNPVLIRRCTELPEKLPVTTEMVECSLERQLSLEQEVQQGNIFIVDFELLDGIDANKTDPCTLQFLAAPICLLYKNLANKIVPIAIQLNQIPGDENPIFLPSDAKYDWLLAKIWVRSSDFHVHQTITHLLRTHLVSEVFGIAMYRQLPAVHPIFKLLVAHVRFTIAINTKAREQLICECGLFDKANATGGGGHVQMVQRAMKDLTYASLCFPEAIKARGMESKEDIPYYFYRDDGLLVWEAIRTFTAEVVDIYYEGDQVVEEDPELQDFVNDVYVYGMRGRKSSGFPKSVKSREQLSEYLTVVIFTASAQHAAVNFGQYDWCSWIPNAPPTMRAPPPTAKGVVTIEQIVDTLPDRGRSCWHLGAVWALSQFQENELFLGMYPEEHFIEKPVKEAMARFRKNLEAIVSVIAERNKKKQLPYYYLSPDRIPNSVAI

[2] = biological target: Prostaglandin G/H synthase 2
[3] = biological target: Transient receptor potential cation channel subfamily V member 1 (Homo sapiens, UniProt Q8NER1); test: Inhibition of TRPV1 (unknown origin)
Sequence of Transient receptor potential cation channel subfamily V member 1 (Q8NER1 whole entry): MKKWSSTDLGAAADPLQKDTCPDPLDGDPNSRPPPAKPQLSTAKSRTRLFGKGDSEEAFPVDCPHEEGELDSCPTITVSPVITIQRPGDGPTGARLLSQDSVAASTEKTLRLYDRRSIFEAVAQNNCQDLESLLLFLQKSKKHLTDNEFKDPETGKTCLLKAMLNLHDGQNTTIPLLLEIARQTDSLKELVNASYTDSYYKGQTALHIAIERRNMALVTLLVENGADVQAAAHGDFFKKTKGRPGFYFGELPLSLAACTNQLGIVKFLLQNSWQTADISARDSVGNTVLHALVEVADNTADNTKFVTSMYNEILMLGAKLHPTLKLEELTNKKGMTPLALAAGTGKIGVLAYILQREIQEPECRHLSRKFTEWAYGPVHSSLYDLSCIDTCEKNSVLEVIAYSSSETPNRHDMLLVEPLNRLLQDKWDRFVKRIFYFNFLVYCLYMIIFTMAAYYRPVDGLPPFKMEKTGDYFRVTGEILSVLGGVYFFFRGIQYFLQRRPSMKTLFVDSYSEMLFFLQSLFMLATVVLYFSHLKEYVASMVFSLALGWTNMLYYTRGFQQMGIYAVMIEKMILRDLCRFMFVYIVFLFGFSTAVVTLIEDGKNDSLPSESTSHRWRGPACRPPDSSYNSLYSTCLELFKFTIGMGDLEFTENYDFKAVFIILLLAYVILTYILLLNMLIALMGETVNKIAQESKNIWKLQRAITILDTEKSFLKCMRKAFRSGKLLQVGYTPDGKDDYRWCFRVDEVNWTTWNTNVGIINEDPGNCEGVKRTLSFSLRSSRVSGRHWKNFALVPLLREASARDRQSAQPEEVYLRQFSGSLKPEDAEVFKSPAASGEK

Mus musculus [4] = test: Antiinflammatory activity against capsaicin-induced mouse ear edema model assessed as decrease in ear thickness at 20 mg/kg relative to control; assay type: functional
[5] = Apparent clearance in Sprague-Dawley rat at 1 mg/kg, iv; assay type: ADME, organism-based; conditions: in vivo
[6] = Bioavailability in Sprague-Dawley rat at 1 mg/kg, iv; assay type: ADME, organism-based; conditions: in vivo
Mus musculus [7] = organism: Mus musculus; test: Analgesic activity in formalin-induced mouse pain model assessed as reduction in immediate response by measuring licking time; assay type: functional
[8] = Cmax in Sprague-Dawley rat at 10 mg/kg, IG; assay type: ADME, organism-based; set-up: dose 10 mg/kg, route ig; conditions: in vivo, po
[9] = Tmax in Sprague-Dawley rat at 10 mg/kg, IG; assay type: ADME, organism-based; conditions: in vivo, po
Mus musculus [10] = organism: Mus musculus; test: Analgesic activity in formalin-induced mouse pain model assessed as time consumed for nociceptive behavior by measuring licking time; assay type: functional

SMILES	pIC50 [1]	pIC50 [2]	pIC50 [3]	inhibition in vivo at 20 mg/kg (Mus musculus [4]) [%]	clearance [5] [mL/min/kg]	bioavailability [6] [%]	Time (Mus musculus [7]) [min]	Cmax [8] [ng/mL]	Tmax [9] [h]	Time (Mus musculus [10]) [s]
CCOC(=O)NS(=O)(=O)c1ccc(-n2nc(C(F)(F)F)cc2-c2ccc(C)cc2)cc1	6.04	7.46	–	–	–	–	–	–	–	–
Cc1ccc(-c2cc(C(F)(F)F)nn2-c2ccc(S(N)(=O)=O)cc2)cc1 [CELECOXIB]	< 5.00	–	< 5.00	48.8	–	–	–	–	–	–
COc1cc(C(=O)[N-]S(=O)(=O)c2ccc(-n3nc(C(F)(F)F)cc3-c3ccc(C)cc3)cc2)ccc1[O-].[Na+].[Na+]	6.34	7.96	–	–	3.24	96.8	0	5810	4.5	85.5
Cc1ccc(-c2cc(C(F)(F)F)nn2-c2ccc(S(=O)(=O)NC(=O)CCCCC3CCSS3)cc2)cc1 (stereo unspecified)	5.85	6.43	< 5.00	–	–	–	–	–	–	–

Continued, in another order:

pIC50 [1]	pIC50 [2]	pIC50 [3]	SMILES	inhibition in vivo at 20 mg/kg (Mus musculus [4]) [%]	clearance [5] [mL/min/kg]	bioavailability [6] [%]	Time (Mus musculus [7]) [min]	Cmax [8] [ng/mL]	Tmax [9] [h]	Time (Mus musculus [10]) [s]
6.28	7.60	5.99	Cc1ccc(-c2cc(C(F)(F)F)nn2-c2ccc(S(=O)(=O)NC(=O)C(C)c3ccc(CC(C)C)cc3)cc2)cc1 (stereo unspecified)	–	–	–	–	–	–	–
6.51	7.64	6.85	COc1cc(/C=C/C(=O)[N-]S(=O)(=O)c2ccc(-n3nc(C(F)(F)F)cc3-c3ccc(C)cc3)cc2)ccc1[O-].[Na+].[Na+]	–	8.64	13.3	–	–	–	–
6.92	7.12	–	Cc1ccc(-c2cc(C(F)(F)F)nn2-c2ccc(S(=O)(=O)NC(=O)c3ccccc3)cc2)cc1	–	–	–	–	–	–	–
